In patent publication US8563553B2, “Compounds and compositions as protein kinase inhibitors” (Novartis AG, priority 2009, dated 2013):

Molecular target: b-Raf(V600E) (Homo sapiens (Human), UniProt P15056, V600E)
Assay: Raf/Mek Amplified Luminescence Proximity Homogeneous Assay (Alpha Screen)
Format: biochemical
Conditions: b-Raf(V600E) approximately 4 pM; biotinylated Mek, kinase dead approximately 10 nM; ATP 10 μM; pre-incubation 60 minutes; reaction 3 hours at room temperature; read-out: mut-B-RAF IC50
Outline: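 Raf pre-incubated with compound and kinase-dead biotinylated Mek (~10 nM) for 60 min, room temperature, in 50 mM Tris pH 7.5, 15 mM MgCl2, 0.01% BSA, 1 mM DTT; ATP-started reaction 1 or 3 h, EDTA stop. Phospho-MEK detected by anti-p-MEK1/2 AlphaScreen; IC50 by non-linear regression.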

Chain of b-Raf(V600E) (P15056 whole entry V600E): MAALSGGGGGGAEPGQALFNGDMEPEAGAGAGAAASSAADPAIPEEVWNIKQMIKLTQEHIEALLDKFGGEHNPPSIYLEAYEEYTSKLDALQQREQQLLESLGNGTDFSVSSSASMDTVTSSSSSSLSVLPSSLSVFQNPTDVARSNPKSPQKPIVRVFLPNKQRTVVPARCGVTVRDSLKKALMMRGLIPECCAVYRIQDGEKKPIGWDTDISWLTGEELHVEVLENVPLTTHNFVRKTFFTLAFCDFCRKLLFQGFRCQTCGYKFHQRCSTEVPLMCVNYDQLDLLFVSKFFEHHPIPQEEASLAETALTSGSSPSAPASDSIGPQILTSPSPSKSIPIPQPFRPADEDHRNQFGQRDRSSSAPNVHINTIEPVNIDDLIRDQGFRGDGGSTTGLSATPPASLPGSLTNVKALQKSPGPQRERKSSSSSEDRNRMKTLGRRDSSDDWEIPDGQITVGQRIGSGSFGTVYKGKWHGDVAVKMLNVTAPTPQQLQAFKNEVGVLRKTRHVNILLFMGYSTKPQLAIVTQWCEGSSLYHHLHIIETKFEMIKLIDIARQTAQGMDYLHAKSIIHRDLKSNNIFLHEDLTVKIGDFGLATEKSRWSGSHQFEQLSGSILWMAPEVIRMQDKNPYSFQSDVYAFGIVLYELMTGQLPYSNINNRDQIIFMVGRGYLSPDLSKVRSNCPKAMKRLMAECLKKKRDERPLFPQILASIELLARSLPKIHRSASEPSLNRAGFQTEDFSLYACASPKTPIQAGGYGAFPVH

Row | SMILES | IC50
1 | CC(C)(C)c1nc(-c2cc(Cl)cc(NS(C)(=O)=O)c2F)c(-c2ccnc(N)n2)[nH]1 [Example 1BD, N-(3-(5-(2-Aminopyrimidin-4-yl)-2-tert-butyl-1H-imidazol-4-yl)-5-chloro-2-fluorophenyl)methanesulfonamide] | 3 nM
2 | CCCS(=O)(=O)Nc1cc(F)cc(-c2nc(C3CC3)[nH]c2-c2ccnc(NC)n2)c1Cl [Example 1BX, N-(2-Chloro-3-(2-cyclopropyl-5-(2-(methylamino)pyrimidin-4-yl)-1H-imidazol-4-yl)-5-fluorophenyl)propane-1-sulfonamide] | 0.11 nM
3 | CC1(c2nc(-c3cc(F)cc(NS(C)(=O)=O)c3Cl)c(-c3ccnc(NCCC#N)n3)[nH]2)CC1 [Example 1AY, N-(2-Chloro-3-(5-(2-(2-cyanoethylamino)pyrimidin-4-yl)-2-(1-methylcyclopropyl)-1H-imidazol-4-yl)-5-fluorophenyl)methanesulfonamide] | 0.23 nM
4 | COC(=O)N[C@@H](C)CNc1nccc(-c2[nH]c(C(C)(C)C)nc2-c2cc(Cl)cc(NS(=O)(=O)CC(C)C)c2)n1 [Example 1G, (S)-methyl 1-(4-(2-tert-butyl-4-(3-chloro-5-(2-methylpropylsulfonamido)phenyl)-1H-imidazol-5-yl)pyrimidin-2-ylamino)propan-2-ylcarbamate] | 0.3 nM
5 | O=S(=O)(Nc1cc(F)cc(-c2nc(C3CC3)[nH]c2-c2ccncn2)c1Cl)c1c(F)cccc1F [Example 2I, N-(2-Chloro-3-(2-cyclopropyl-5-(pyrimidin-4-yl)-1H-imidazol-4-yl)-5-fluorophenyl)-2,6-difluorobenzenesulfonamide] | 1 nM
6 | CCNc1nccc(-c2[nH]c(C3CC3)nc2-c2cc(F)cc(NS(C)(=O)=O)c2Cl)n1 [Example 1AQ, N-(2-Chloro-3-(2-cyclopropyl-5-(2-(ethylamino)pyrimidin-4-yl)-1H-imidazol-4-yl)-5-fluorophenyl)methanesulfonamide] | 11 nM
7 | CCCS(=O)(=O)Nc1cc(Cl)cc(-c2nc(C(C)(C)C)[nH]c2-c2ccnc(NC[C@H](C)NC(=O)OC)n2)c1 [Example 1E, (S)-methyl 1-(4-(2-tert-butyl-4-(3-chloro-5-(propylsulfonamido)phenyl)-1H-imidazol-5-yl)pyrimidin-2-ylamino)propan-2-ylcarbamate] | 0.1 nM
8 | COC(=O)N[C@@H](C)CNc1nccc(-c2[nH]c(C(C)(C)C)nc2-c2cc(NS(=O)(=O)C(C)C)c(C)c(OC)c2)n1 [Example 1K, (S)-Methyl 1-(4-(2-tert-butyl-4-(3-methoxy-4-methyl-5-(1-methylethylsulfonamido)phenyl)-1H-imidazol-5-yl)pyrimidin-2-ylamino)propan-2-ylcarbamate] | 189 nM
9 | COC(=O)N[C@@H](C)CNc1nccc(-c2[nH]c(C(C)(C)C)nc2-c2cc(Cl)cc(NS(=O)(=O)C(C)C)c2)n1 [Example 1J, (S)-Methyl 1-(4-(2-tert-butyl-4-(3-chloro-5-(1-methylethylsulfonamido)phenyl)-1H-imidazol-5-yl)pyrimidin-2-ylamino)propan-2-ylcarbamate] | 1.35 nM
10 | CNc1nccc(-c2[nH]c(C3CC3)nc2-c2cc(F)cc(NS(=O)(=O)c3c(F)cccc3F)c2Cl)n1 [Example 1BV, N-(2-Chloro-3-(2-cyclopropyl-5-(2-(methylamino)pyrimidin-4-yl)-1H-imidazol-4-yl)-5-fluorophenyl)-2,6-difluorobenzenesulfonamide] | 1 nM
11 | COC(=O)N[C@@H](C)CNc1nccc(-c2[nH]c(C(C)(C)C)nc2-c2cccc(NS(C)(=O)=O)c2F)n1 [Example 2C, (S)-Methyl 1-(4-(2-tert-butyl-4-(2-fluoro-3-(methylsulfonamido)phenyl)-1H-imidazol-5-yl)pyrimidin-2-ylamino)propan-2-ylcarbamate] | 0.61 nM
12 | CC(C)(C)c1nc(-c2cccc(NS(C)(=O)=O)c2Cl)c(-c2ccnc(N)n2)[nH]1 [Example 1BL, N-(3-(5-(2-Aminopyrimidin-4-yl)-2-tert-butyl-1H-imidazol-4-yl)-2-chlorophenyl)methanesulfonamide] | 55 nM
13 | CC1(c2nc(-c3cc(Cl)cc(NS(C)(=O)=O)c3F)c(-c3ccnc(NCCC#N)n3)[nH]2)CC1 [Example 1BB, N-(5-Chloro-3-(5-(2-(2-cyanoethylamino)pyrimidin-4-yl)-2-(1-methylcyclopropyl)-1H-imidazol-4-yl)-2-fluorophenyl)methanesulfonamide] | 0.11 nM
14 | Nc1nccc(-c2[nH]c(C3CC3)nc2-c2cccc(NS(=O)(=O)c3c(F)cccc3F)c2Cl)n1 [Example 2H, N-(3-(5-(2-aminopyrimidin-4-yl)-2-cyclopropyl-1H-imidazol-4-yl)-2-chlorophenyl)-2,6-difluorobenzenesulfonamide] | 1 nM
15 | CCCS(=O)(=O)Nc1cccc(-c2nc(C(C)(C)C)[nH]c2-c2ccnc(NC[C@H](C)NC(=O)OC)n2)c1F [Example 4B, (S)-Methyl 1-(4-(2-tert-butyl-4-(2-fluoro-3-(propylsulfonamido)phenyl)-1H-imidazol-5-yl)pyrimidin-2-ylamino)propan-2-ylcarbamate] | 0.38 nM

Other lines, results leading:

Row | IC50 | SMILES
16 | 1 nM | COC(=O)N[C@@H](C)CNc1nccc(-c2nc(C3(C)CC3)[nH]c2-c2cc(Cl)cc(NS(C)(=O)=O)c2F)n1 [Example 1AL]
17 | 0.3 nM | COC(=O)N[C@@H](C)CNc1nccc(-c2[nH]c(C3CC3)nc2-c2cc(F)cc(NS(=O)(=O)C3CC3)c2Cl)n1 [Example 1AE, (S)-Methyl 1-(4-(4-(2-chloro-3-(cyclopropanesulfonamido)-5-fluorophenyl)-2-cyclopropyl-1H-imidazol-5-yl)pyrimidin-2-ylamino)propan-2-ylcarbamate]
18 | 0.53 nM | CCCS(=O)(=O)Nc1cc(Cl)cc(-c2[nH]c(C(C)(C)C)nc2-c2ccnc(NC[C@H](C)NC(=O)OC)n2)c1F [Example 4F, (S)-Methyl 1-(4-(2-tert-butyl-5-(5-chloro-2-fluoro-3-(propylsulfonamido)phenyl)-1H-imidazol-4-yl)pyrimidin-2-ylamino)propan-2-ylcarbamate]
19 | 1 nM | COC(=O)N[C@@H](C)CNc1nccc(-c2[nH]c(C3CCC3)nc2-c2cc(F)cc(NS(C)(=O)=O)c2Cl)n1 [Example 1BU, (S)-Methyl 1-(4-(4-(2-chloro-5-fluoro-3-(methylsulfonamido)phenyl)-2-cyclobutyl-1H-imidazol-5-yl)pyrimidin-2-ylamino)propan-2-ylcarbamate]
20 | 0.48 nM | COC(=O)N[C@@H](C)CNc1nccc(-c2[nH]c(C3CC3)nc2-c2cc(Cl)cc(NS(C)(=O)=O)c2)n1 [Example 1S, (S)-Methyl 1-(4-(4-(3-chloro-5-(methylsulfonamido)phenyl)-2-cyclopropyl-1H-imidazol-5-yl)pyrimidin-2-ylamino)propan-2-ylcarbamate]
21 | 0.08 nM | CS(=O)(=O)Nc1cc(Cl)cc(-c2nc(C3CC3)[nH]c2-c2ccnc(NCCC#N)n2)c1F [Example 2A, N-(5-Chloro-3-(5-(2-(2-cyanoethylamino)pyrimidin-4-yl)-2-cyclopropyl-1H-imidazol-4-yl)-2-fluorophenyl)methanesulfonamide]
22 | 0.27 nM | COC(=O)N[C@@H](C)CNc1nccc(-c2[nH]c(C(C)(C)C)nc2-c2cccc(NS(=O)(=O)C3CC3)c2F)n1 [Example 2B, (S)-Methyl 1-(4-(2-tert-butyl-4-(3-(cyclopropanesulfonamido)-2-fluorophenyl)-1H-imidazol-5-yl)pyrimidin-2-ylamino)propan-2-ylcarbamate]
23 | 0.4 nM | COC(=O)N[C@@H](C)CNc1nccc(-c2[nH]c(C3CC3)nc2-c2cc(F)cc(NS(C)(=O)=O)c2Cl)n1 [Example 5A, (S)-methyl 1-(4-(4-(2-chloro-5-fluoro-3-(methylsulfonamido)phenyl)-2-cyclopropyl-1H-imidazol-5-yl)pyrimidin-2-ylamino)propan-2-ylcarbamate]
24 | 0.25 nM | COC(=O)N[C@@H](C)CNc1nccc(-c2[nH]c(C3CC3)nc2-c2cc(C)cc(NS(=O)(=O)CC(F)(F)F)c2F)n1 [Example 1BO, (S)-Methyl 1-(4-(2-cyclopropyl-4-(2-fluoro-5-methyl-3-(2,2,2-trifluoroethylsulfonamido)phenyl)-1H-imidazol-5-yl)pyrimidin-2-ylamino)propan-2-ylcarbamate]
25 | 0.23 nM | COC(=O)N[C@@H](C)CNc1nccc(-c2[nH]c(C3CCC3)nc2-c2cc(Cl)cc(NS(C)(=O)=O)c2F)n1 [Example 1BT, (S)-Methyl 1-(4-(4-(5-chloro-2-fluoro-3-(methylsulfonamido)phenyl)-2-cyclobutyl-1H-imidazol-5-yl)pyrimidin-2-ylamino)propan-2-ylcarbamate]
26 | 0.96 nM | COC(=O)N[C@@H](C)CNc1nccc(-c2[nH]c(C3CC3)nc2-c2cc(C)cc(NS(=O)(=O)C(C)C)c2)n1 [Example 4D, (S)-Methyl 1-(4-(2-cyclopropyl-4-(3-methyl-5-(1-methylethylsulfonamido)phenyl)-1H-imidazol-5-yl)pyrimidin-2-ylamino)propan-2-ylcarbamate]
27 | 67.2 nM | COC(=O)N[C@@H](C)CNc1nccc(-c2[nH]c(C(C)(C)C)nc2-c2cc(Cl)cc(NS(=O)(=O)C(C)C)c2C)n1 [Example 1O, (S)-Methyl 1-(4-(2-tert-butyl-4-(5-chloro-2-methyl-3-(1-methylethylsulfonamido)phenyl)-1H-imidazol-5-yl)pyrimidin-2-ylamino)propan-2-ylcarbamate]
28 | 0.33 nM | COC(=O)N[C@@H](C)CNc1nccc(-c2nc(C3CC3)[nH]c2-c2cc(Cl)cc(NS(=O)(=O)c3cccc(F)c3)c2F)n1 [Example 1AX, (S)-Methyl 1-(4-(5-(5-chloro-2-fluoro-3-(3-fluorophenylsulfonamido)phenyl)-2-cyclopropyl-1H-imidazol-4-yl)pyrimidin-2-ylamino)propan-2-ylcarbamate]
29 | 1 nM | COC(=O)N[C@@H](C)CNc1nccc(-c2nc(C3CC3)[nH]c2-c2cc(Cl)cc(NS(=O)(=O)c3ccc(F)cc3)c2F)n1 [Example 1AW]
